From patent publication US20230322815A1, “NOVEL COMPOUNDS AND THERAPEUTIC USES THEREOF” (University of Huddersfield, priority 2020, published 2023)

How the values were obtained:
chick embryo = test: Embryonic toxicity, HT29 in ovo study; type: in vivo, chick (White Leghorn); conditions: for % Alive / % Dead / Alive (embryos at E18) / Dead (embryos at E18): HT29 study; for embryo tolerability: dose escalation showing no increased embryonic toxicity
Description: 10^6 tumor cells (H460, HT29 or HCT116) were grafted onto the upper chorioallantoic membrane (CAM) of the developing chick embryo on embryonic day 9 (E9). Access to the upper CAM was through a small hole drilled through the eggshell of fertilized White Leghorn eggs (into the air sac) on E9 (15 eggs per experimental group).
100 μl of freshly prepared experimental compound, vehicle control or standard-of-care (SoC) drug at their working concentrations were pipetted onto the tumor graft at E11, E13, E15 and E17. On day E18, the upper CAM (with tumor) was removed, washed by PBS buffer and then directly transferred in PFA (fixation for 48 hrs). After that, tumors were carefully cut away from normal CAM tissue and weighed.
Embryonic viability was checked daily. The number of dead embryos was also counted on E18, to evaluate treatment-induced embryo toxicity.

[1] = Phosphatase activity: hydrolysis of phenyl phosphate
Description: FIG. 6. Phosphatase activity of [L2Zn3]^6+. ^31P NMR spectra using different substrates including PhOPO3 (spectra A to D), serine phosphate (spectra E to H), threonine phosphate (spectra I to L) and tyrosine phosphate (spectra M to P). Specific details for each ^31P NMR spectra are as follows: Spectra A, E, I and M represent substrate alone (44 hrs incubated @ 37° C.); Spectra B, F, J and N represents [L2Zn3]^6+ plus substrate (t=0 min); Spectra C, G, K and O represents [L2Zn3]^6+ plus substrate incubated @ 37° C. for 19 hours; Spectra D, H, L and […] represents [L2Zn3]^6+ plus substrate incubated @ 37° C. for 44 hours. The ^31P NMR of [L2Zn3(PO4)]^3+ gives a signal at 8.6 ppm.
Only [L2Zn3(PO4)]^3+ was observed, coupled with a rapid yellowing of the solution due to the formation of 4-nitrophenolate.
The rate of substrate hydrolysis is also dependent upon the metal used in the self-assembly process.

Src = Src (Homo sapiens, UniProt P12931); test: Cell-free kinase screen; type: biochemical; conditions: 10 μM complex
Src, sequence (P12931 whole entry): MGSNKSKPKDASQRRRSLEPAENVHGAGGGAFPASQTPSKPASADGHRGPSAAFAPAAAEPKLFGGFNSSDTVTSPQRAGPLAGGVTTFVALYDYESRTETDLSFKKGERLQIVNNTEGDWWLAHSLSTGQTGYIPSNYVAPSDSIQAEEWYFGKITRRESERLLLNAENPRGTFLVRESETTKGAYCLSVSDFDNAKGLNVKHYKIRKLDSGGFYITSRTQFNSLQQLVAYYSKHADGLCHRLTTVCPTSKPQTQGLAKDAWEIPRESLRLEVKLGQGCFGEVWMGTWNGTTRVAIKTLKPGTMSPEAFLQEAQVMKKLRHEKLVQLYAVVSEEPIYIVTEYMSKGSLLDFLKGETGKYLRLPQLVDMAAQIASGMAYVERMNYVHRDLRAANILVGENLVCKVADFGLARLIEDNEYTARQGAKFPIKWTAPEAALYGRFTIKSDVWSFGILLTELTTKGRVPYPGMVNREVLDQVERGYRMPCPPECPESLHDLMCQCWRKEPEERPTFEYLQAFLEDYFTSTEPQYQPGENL
Description: FIG. 9. Effects of [L2Zn3]^6+ and [L2Cu3]^6+ on the activity of purified human kinases. a,b, Percentage inhibition of the indicated kinases by [L2Zn3]^6+ (a) and [L2Cu3]^6+ (b) respectively at a concentration of 10 μM; full results are presented in the ESI. c,d, Kinases whose activity is stimulated by [L2Zn3]^6+ (c) or [L2Cu3]^6+ (d) complexes. e,f, Kinome map showing kinases inhibited (red) or stimulated (green) by [L2Zn3]^6+ (e) or [L2Cu3]^6+ (f). III ustration reproduced courtesy of Cell Signalling Technology Inc (www.cellsignal.com)
FIG. 16. The effect of [L2Zn3]^6+ and [L2Cu3]^6+ on the activity of recombinant human kinases. The compounds were submitted to the MRC Protein Phosphorylation and Ubiquitination Unit International Centre for Kinase Profiling (University of Dundee) and tested at a concentration of 10 μM against 140 human kinases (Premier Screen).
Given the ability of the Zn^2+ complex to dephosphorylate amino acids serine, tyrosine and threonine (FIG. 6) and the Cu^2+ complex to bind phenyl phosphate (FIG. 3), it was examined whether the complexes affect the activity of kinases. This was assessed in a cell-free screen of 140 kinases using purified recombinant human kinases and substrate peptides incubated in the presence of ^33P ATP and 10 μM complex or solvent control. […]

[2] = dose [1]: L2Zn3 26.6 μM, L2Cu3 23.8 μM
[3] = dose [2]: L2Zn3 53.2 μM, L2Cu3 65.7 μM
[4] = dose [3]: L2Zn3 106.4 μM, L2Cu3 131.46 μM

SMILES	% Alive (chick embryo; [2]) [%]	% Dead (chick embryo; [2]) [%]	Alive (embryos at E18) (chick embryo; [2])	Dead (embryos at E18) (chick embryo; [2])	% Alive (chick embryo; [3]) [%]	% Dead (chick embryo; [3]) [%]	Alive (embryos at E18) (chick embryo; [3])	Dead (embryos at E18) (chick embryo; [3])	% Alive (chick embryo; [4]) [%]	% Dead (chick embryo; [4]) [%]	Alive (embryos at E18) (chick embryo; [4])	Dead (embryos at E18) (chick embryo; [4])	embryo tolerability (chick embryo)	hydrolysis of phenyl phosphate ([1]; solid-state and ESI-MS data)	effect on Src kinase activity in the kinase screen (Src)	hydrolysis of PhOPO3^2− by 31P NMR ([1]; 25%:75% DMSO and buffered H2O (HEPES pH 7.5), 37° C., after 44 hrs)
[Cu+2].[Cu+2].[Cu+2].c1ccc(-c2csc(NCCN(CCNc3nc(-c4ccccn4)cs3)CCNc3nc(-c4ccccn4)cs3)n2)nc1.c1ccc(-c2csc(NCCN(CCNc3nc(-c4ccccn4)cs3)CCNc3nc(-c4ccccn4)cs3)n2)nc1 [[L2Cu3]^6+]	71.43	28.57	10	4	85.71	14.29	12	2	92.31	7.69	12	1	well tolerated	does not hydrolyse phenyl phosphate	activity was increased	–
[Zn+2].[Zn+2].[Zn+2].c1ccc(-c2csc(NCCN(CCNc3nc(-c4ccccn4)cs3)CCNc3nc(-c4ccccn4)cs3)n2)nc1.c1ccc(-c2csc(NCCN(CCNc3nc(-c4ccccn4)cs3)CCNc3nc(-c4ccccn4)cs3)n2)nc1 [[L2Zn3]^6+]	85.71	14.29	12	2	92.86	7.14	13	1	92.86	7.14	13	1	well tolerated	–	activity was increased	virtually no signal corresponding to PhOPO3^2− is observed
